ChEMBL document CHEMBL1144507, “Synthesis and antifungal activity of (Z)-5-arylidenerhodanines” (2007)
Converted amounts (≈) assume the structure as drawn.

What was measured:
Nakaseomyces glabratus = experiment: Antifungal activity against Candida glabrata C115-2000 after 48 hrs; type: functional
Cryptococcus neoformans [1] = experiment: Antifungal activity against Cryptococcus neoformans ATCC 32264 after 48 hrs; type: functional; details: ATCC 32264, 48 h
Candida parapsilosis = experiment: Antifungal activity against Candida parapsilosis C124-2000 after 48 hrs; type: functional; details: Lodderomyces parapsilosis
Candida albicans [2] = experiment: Antifungal activity against Candida albicans ATCC 10231 after 48 hrs; type: functional; details: ATCC 10231, 48 h
Cryptococcus neoformans [3] = experiment: Antifungal activity against […] IM 983036 after 48 hrs; type: functional
Candida tropicalis = experiment: Antifungal activity against Candida tropicalis C131-1997 after 48 hrs; type: functional
Trichophyton rubrum = experiment: Antifungal activity against Trichophyton rubrum C113 after 48 hrs; type: functional
Kluyveromyces marxianus = experiment: Antifungal activity against Candida kefyr C123-2000 after 48 hrs; type: functional
Cryptococcus neoformans [4] = experiment: Antifungal activity against […] IM 961951 after 48 hrs; type: functional
Nannizzia gypsea = experiment: Antifungal activity against Microsporum gypseum C115 after 48 hrs; type: functional
Pichia kudriavzevii = experiment: Antifungal activity against Candida krusei C117-2000 after 48 hrs; type: functional
Candida albicans [5] = experiment: Antifungal activity against Candida albicans C127-2000 after 48 hrs; type: functional
Saccharomyces cerevisiae = experiment: Antifungal activity against Saccharomyces cerevisiae ATCC 9763 after 48 hrs; type: functional; details: ATCC 9763, 48 h
Candida albicans [6] = experiment: Antifungal activity against Candida albicans C128-2000 after 48 hrs; type: functional
Cryptococcus neoformans [7] = experiment: Antifungal activity against […] ATCC 32264 after 48 hrs; type: functional; details: ATCC 32264, 48 h
Cryptococcus neoformans [8] = experiment: Antifungal activity against […] IM 031631 after 48 hrs; type: functional; details: Cryptococcus neoformans, 48 h
Torulaspora delbrueckii = experiment: Antifungal activity against Candida coliculosa C122-2000 after 48 hrs; type: functional
Trichophyton benhamiae [9] = experiment: Antifungal activity against Trichophyton mentagrophytes C738 after 48 hrs; type: functional, Arthroderma benhamiae
Cryptococcus neoformans [10] = experiment: Antifungal activity against […] IM 972751 after 48 hrs; type: functional
Clavispora lusitaniae = experiment: Antifungal activity against Candida lusitaniae C131-2000 after 48 hrs; type: functional
Cryptococcus neoformans [11] = experiment: Antifungal activity against […] IM 042074 after 48 hrs; type: functional
Trichophyton benhamiae [12] = experiment: Antifungal activity against Trichophyton mentagrophytes C943 after 48 hrs; type: functional, Arthroderma benhamiae
Aspergillus fumigatus = experiment: Antifungal activity against Aspergillus fumigatus ATCC 26934 after 48 hrs; type: functional; details: ATCC 26934, 48 h
Aspergillus flavus = experiment: Antifungal activity against Aspergillus flavus ATCC 9170 after 48 hrs; type: functional; details: ATCC 9170, 48 h
Cryptococcus neoformans [13] = experiment: Antifungal activity against […] IM 052470 after 48 hrs; type: functional
Trichophyton benhamiae [14] = experiment: Antifungal activity against Trichophyton mentagrophytes C539 after 48 hrs; type: functional, Arthroderma benhamiae
Cryptococcus neoformans [15] = experiment: Antifungal activity against […] IM 972724 after 48 hrs; type: functional
Cryptococcus neoformans [16] = experiment: Antifungal activity against […] IM 031706 after 48 hrs; type: functional
Trichophyton benhamiae [17] = experiment: Antifungal activity against Trichophyton mentagrophytes ATCC 9972 after 48 hrs; type: functional, Arthroderma benhamiae; details: ATCC 9972, 48 h
Aspergillus niger = experiment: Antifungal activity against Aspergillus niger ATCC 9029 after 48 hrs; type: functional; details: ATCC 9029, 48 h
Candida albicans [18] = experiment: Antifungal activity against Candida albicans C126-2000 after 48 hrs; type: functional
Trichophyton benhamiae [19] = experiment: Antifungal activity against Trichophyton mentagrophytes C364 after 48 hrs; type: functional, Arthroderma benhamiae
Candida albicans [20] = experiment: Antifungal activity against Candida albicans C130-2000 after 48 hrs; type: functional
Candida albicans [21] = experiment: Antifungal activity against Candida albicans C125-2000 after 48 hrs; type: functional
Cryptococcus neoformans [22] = experiment: Antifungal activity against […] IM 00319 after 48 hrs; type: functional
Cryptococcus neoformans [23] = experiment: Antifungal activity against Candida neoformans IM 983040 after 48 hrs; type: functional
Trichophyton benhamiae [24] = experiment: Antifungal activity against Trichophyton mentagrophytes C108 after 48 hrs; type: functional, Arthroderma benhamiae
Candida albicans [25] = experiment: Antifungal activity against Candida albicans C129-2000 after 48 hrs; type: functional

- MIC (Nakaseomyces glabratus): 7.8 µg/mL (≈ 32.6 µM)
- MIC50 (Nakaseomyces glabratus): 3.9 µg/mL (≈ 16.3 µM)
- MIC80 (Nakaseomyces glabratus): 3.9 µg/mL (≈ 16.3 µM)
- MIC (Cryptococcus neoformans [1]): 7.8 µg/mL (≈ 32.6 µM)
- MIC (Candida parapsilosis): 7.8 µg/mL (≈ 32.6 µM)
- MIC50 (Candida parapsilosis): 7.8 µg/mL (≈ 32.6 µM)
- MIC80 (Candida parapsilosis): 3.9 µg/mL (≈ 16.3 µM)
- MIC (Candida albicans [2]): 7.8 µg/mL (≈ 32.6 µM)
- MIC (Cryptococcus neoformans [3]): 15.6 µg/mL (≈ 65.2 µM)
- MIC50 (Cryptococcus neoformans [3]): 7.8 µg/mL (≈ 32.6 µM)
- MIC80 (Cryptococcus neoformans [3]): 7.8 µg/mL (≈ 32.6 µM)
- MIC (Candida tropicalis): 7.8 µg/mL (≈ 32.6 µM)
- MIC50 (Candida tropicalis): 3.9 µg/mL (≈ 16.3 µM)
- MIC80 (Candida tropicalis): 7.8 µg/mL (≈ 32.6 µM)
- MIC (Trichophyton rubrum): 32 µg/mL (≈ 134 µM)
- MIC (Kluyveromyces marxianus): 31.2 µg/mL (≈ 130 µM)
- MIC50 (Kluyveromyces marxianus): 3.9 µg/mL (≈ 16.3 µM)
- MIC80 (Kluyveromyces marxianus): 7.8 µg/mL (≈ 32.6 µM)
- MIC (Cryptococcus neoformans [4]): 7.8 µg/mL (≈ 32.6 µM)
- MIC50 (Cryptococcus neoformans [4]): 1.9 µg/mL (≈ 7.94 µM)
- MIC80 (Cryptococcus neoformans [4]): 7.8 µg/mL (≈ 32.6 µM)
- MIC (Nannizzia gypsea): 15.6 µg/mL (≈ 65.2 µM)
- MIC (Pichia kudriavzevii): 31.2 µg/mL (≈ 130 µM)
- MIC50 (Pichia kudriavzevii): 3.9 µg/mL (≈ 16.3 µM)
- MIC80 (Pichia kudriavzevii): 7.8 µg/mL (≈ 32.6 µM)
- MIC (Candida albicans [5]): 15.6 µg/mL (≈ 65.2 µM)
- MIC50 (Candida albicans [5]): 7.8 µg/mL (≈ 32.6 µM)
- MIC80 (Candida albicans [5]): 15.6 µg/mL (≈ 65.2 µM)
- MIC (Saccharomyces cerevisiae): 7.8 µg/mL (≈ 32.6 µM)
- MIC (Candida albicans [6]): 31.2 µg/mL (≈ 130 µM)
- MIC50 (Candida albicans [6]): 3.9 µg/mL (≈ 16.3 µM)
- MIC80 (Candida albicans [6]): 15.6 µg/mL (≈ 65.2 µM)
- MIC (Cryptococcus neoformans [7]): 7.8 µg/mL (≈ 32.6 µM)
- MIC50 (Cryptococcus neoformans [7]): 3.9 µg/mL (≈ 16.3 µM)
- MIC80 (Cryptococcus neoformans [7]): 7.8 µg/mL (≈ 32.6 µM)
- MIC (Cryptococcus neoformans [8]): 7.8 µg/mL (≈ 32.6 µM)
- MIC50 (Cryptococcus neoformans [8]): 1.9 µg/mL (≈ 7.94 µM)
- MIC80 (Cryptococcus neoformans [8]): 3.9 µg/mL (≈ 16.3 µM)
- MIC (Torulaspora delbrueckii): 7.8 µg/mL (≈ 32.6 µM)
- MIC50 (Torulaspora delbrueckii): 3.9 µg/mL (≈ 16.3 µM)
- MIC80 (Torulaspora delbrueckii): 3.9 µg/mL (≈ 16.3 µM)
- MIC (Trichophyton benhamiae [9]): 1.95 µg/mL (≈ 8.15 µM)
- MIC (Cryptococcus neoformans [10]): 7.8 µg/mL (≈ 32.6 µM)
- MIC50 (Cryptococcus neoformans [10]): 1.9 µg/mL (≈ 7.94 µM)
- MIC80 (Cryptococcus neoformans [10]): 1.9 µg/mL (≈ 7.94 µM)
- MIC (Clavispora lusitaniae): 7.8 µg/mL (≈ 32.6 µM)
- MIC50 (Clavispora lusitaniae): 3.9 µg/mL (≈ 16.3 µM)
- MIC80 (Clavispora lusitaniae): 3.9 µg/mL (≈ 16.3 µM)
- MIC (Cryptococcus neoformans [11]): 7.8 µg/mL (≈ 32.6 µM)
- MIC50 (Cryptococcus neoformans [11]): 3.9 µg/mL (≈ 16.3 µM)
- MIC80 (Cryptococcus neoformans [11]): 3.9 µg/mL (≈ 16.3 µM)
- MIC (Trichophyton benhamiae [12]): 0.97 µg/mL (≈ 4.05 µM)
- MIC (Aspergillus fumigatus): 250 µg/mL (≈ 1040 µM)
- MIC (Aspergillus flavus): 250 µg/mL (≈ 1040 µM)
- MIC (Cryptococcus neoformans [13]): 7.8 µg/mL (≈ 32.6 µM)
- MIC50 (Cryptococcus neoformans [13]): 1.9 µg/mL (≈ 7.94 µM)
- MIC80 (Cryptococcus neoformans [13]): 1.9 µg/mL (≈ 7.94 µM)
- MIC (Trichophyton benhamiae [14]): 1.95 µg/mL (≈ 8.15 µM)
- MIC (Cryptococcus neoformans [15]): 15.6 µg/mL (≈ 65.2 µM)
- MIC50 (Cryptococcus neoformans [15]): 3.9 µg/mL (≈ 16.3 µM)
- MIC80 (Cryptococcus neoformans [15]): 7.8 µg/mL (≈ 32.6 µM)
- MIC (Cryptococcus neoformans [16]): 7.8 µg/mL (≈ 32.6 µM)
- MIC50 (Cryptococcus neoformans [16]): 1.9 µg/mL (≈ 7.94 µM)
- MIC80 (Cryptococcus neoformans [16]): 3.9 µg/mL (≈ 16.3 µM)
- MIC (Trichophyton benhamiae [17]): 7.8 µg/mL (≈ 32.6 µM)
- MIC (Aspergillus niger): 250 µg/mL (≈ 1040 µM)
- MIC (Candida albicans [18]): 15.6 µg/mL (≈ 65.2 µM)
- MIC50 (Candida albicans [18]): 3.9 µg/mL (≈ 16.3 µM)
- MIC80 (Candida albicans [18]): 15.6 µg/mL (≈ 65.2 µM)
- MIC (Trichophyton benhamiae [19]): 0.97 µg/mL (≈ 4.05 µM)
- MIC (Candida albicans [20]): 15.6 µg/mL (≈ 65.2 µM)
- MIC50 (Candida albicans [20]): 3.9 µg/mL (≈ 16.3 µM)
- MIC80 (Candida albicans [20]): 7.8 µg/mL (≈ 32.6 µM)
- MIC (Candida albicans [21]): 15.6 µg/mL (≈ 65.2 µM)
- MIC50 (Candida albicans [21]): 7.8 µg/mL (≈ 32.6 µM)
- MIC80 (Candida albicans [21]): 7.8 µg/mL (≈ 32.6 µM)
- MIC (Cryptococcus neoformans [22]): 7.8 µg/mL (≈ 32.6 µM)
- MIC50 (Cryptococcus neoformans [22]): 1.9 µg/mL (≈ 7.94 µM)
- MIC80 (Cryptococcus neoformans [22]): 1.9 µg/mL (≈ 7.94 µM)
- MIC (Cryptococcus neoformans [23]): 15.6 µg/mL (≈ 65.2 µM)
- MIC50 (Cryptococcus neoformans [23]): 1.9 µg/mL (≈ 7.94 µM)
- MIC80 (Cryptococcus neoformans [23]): 1.9 µg/mL (≈ 7.94 µM)
- MIC (Trichophyton benhamiae [24]): 1.95 µg/mL (≈ 8.15 µM)
- MIC (Candida albicans [25]): 15.6 µg/mL (≈ 65.2 µM)
- MIC50 (Candida albicans [25]): 3.9 µg/mL (≈ 16.3 µM)
- MIC80 (Candida albicans [25]): 7.8 µg/mL (≈ 32.6 µM)
SMILES: O=C1NC(=S)S/C1=C\c1ccc(F)cc1
- MFC (Nakaseomyces glabratus): 51.6 µg/mL (≈ 216 µM)
- MFC (Candida parapsilosis): 15.6 µg/mL (≈ 65.2 µM)
- MFC (Cryptococcus neoformans [3]): 62.5 µg/mL (≈ 261 µM)
- MFC (Candida tropicalis): 15.6 µg/mL (≈ 65.2 µM)
- MFC (Kluyveromyces marxianus): 31.2 µg/mL (≈ 130 µM)
- MFC (Cryptococcus neoformans [4]): 15.6 µg/mL (≈ 65.2 µM)
- MFC (Pichia kudriavzevii): 62.5 µg/mL (≈ 261 µM)
- MFC (Candida albicans [5]): 31.2 µg/mL (≈ 130 µM)
- MFC (Candida albicans [6]): 62.5 µg/mL (≈ 261 µM)
- MFC (Cryptococcus neoformans [7]): 31.2 µg/mL (≈ 130 µM)
- MFC (Cryptococcus neoformans [8]; read-out: MFC): 31.2 µg/mL (≈ 130 µM)
- MFC (Torulaspora delbrueckii): 15.6 µg/mL (≈ 65.2 µM)
- MFC (Cryptococcus neoformans [10]): 62.5 µg/mL (≈ 261 µM)
- MFC (Clavispora lusitaniae): 15.6 µg/mL (≈ 65.2 µM)
- MFC (Cryptococcus neoformans [11]): 31.2 µg/mL (≈ 130 µM)
- MFC (Cryptococcus neoformans [13]): 31.2 µg/mL (≈ 130 µM)
- MFC (Cryptococcus neoformans [15]): 31.2 µg/mL (≈ 130 µM)
- MFC (Cryptococcus neoformans [16]): 31.2 µg/mL (≈ 130 µM)
- MFC (Candida albicans [18]): 31.2 µg/mL (≈ 130 µM)
- MFC (Candida albicans [20]): 31.2 µg/mL (≈ 130 µM)
- MFC (Candida albicans [21]): 31.2 µg/mL (≈ 130 µM)
- MFC (Cryptococcus neoformans [22]): 15.6 µg/mL (≈ 65.2 µM)
- MFC (Cryptococcus neoformans [23]): 31.2 µg/mL (≈ 130 µM)
- MFC (Candida albicans [25]): 31.2 µg/mL (≈ 130 µM)
